The source of these data is publication PMC10038035 (Journal of Enzyme Inhibition and Medicinal Chemistry, 2023).

The target in experiment [1] is T1, prion protein (recombinant mouse PrP, recPrP) (Mus musculus, UniProt P04925).
T1 construct: gene Prnp
The experiment is described as follows: biochemical.

The target in experiment [2] is T1, prion protein (recombinant mouse PrP, recPrP). The experiment is described as follows: biochemical. The source holds these as a separate data set.
The target is the same in experiment [3]. Format: biochemical.

SMILES strings stand for the structures. Like-named read-outs stand apart in the source and are kept apart here.

T1 sequence (P04925 23-231 limits assumed): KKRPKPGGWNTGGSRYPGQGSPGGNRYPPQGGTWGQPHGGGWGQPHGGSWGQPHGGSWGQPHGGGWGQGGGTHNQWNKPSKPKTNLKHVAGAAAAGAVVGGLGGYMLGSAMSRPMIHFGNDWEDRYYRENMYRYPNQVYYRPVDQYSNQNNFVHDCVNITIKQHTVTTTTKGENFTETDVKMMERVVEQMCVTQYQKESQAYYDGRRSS

Regarding `O=C(NNC(=S)Nc1ccc(Cl)cc1)c1cc2cccc(O)c2cc1O` [7x], the EC50 in experiment [1] turned out to be 4.6 µM.

For `CCOc1cc(C(=O)NNC(=S)Nc2ccc(Cl)cc2)c(O)c2ccccc12` [7y], the EC50 in experiment [2] turned out to be 5 µM.

Turning to `Cc1cc(Nc2ccc(NC(=O)c3ccc(Nc4ccnc5ccccc45)cc3)cc2)nc(N)n1` [SGI-1027], in experiment [3], the “PrP aggregate formation assay (ThT fluorescence) with purified recPrP, single co” value was “The anti-PrP aggregation activity of 7x and 7y was further compared to that of SGI-1027 (a positive control)”.

What is called EC50 is the concentration that produces a half-maximal response.
